# Literature values, collected in US9539278B2, “Preparation for use of aspartate and vitamin B12 or biotin for regulating ketone bodies” (N.V. Nutricia, priority 2004, dated 2017).
# Tested on: blood ketone body concentrations
# Settings: rats, after consumption of high doses of alanine
smiles,measurement,value
C[C@H](N)C(=O)O [alanine],blood levels of ketone bodies,decreased
